How the values were obtained:
TetR = TetR (Escherichia coli, UniProt P04483); format: cell-based; conditions: high-copy plasmid, LB, 37°C; extracellular inducer; induction (derepression); lumped parameter of uptake, DNA binding and Kd, not a pure affinity; read-out: Half maximal parameter
CdaR = target: T1, CdaR (Escherichia coli, UniProt P37047); format: cell-based; conditions: high-copy plasmid, LB, 37°C; extracellular inducer; activation; lumped parameter of uptake, DNA binding and Kd, not a pure affinity; read-out: Half maximal parameter
T1 sequence (P37047 1-385): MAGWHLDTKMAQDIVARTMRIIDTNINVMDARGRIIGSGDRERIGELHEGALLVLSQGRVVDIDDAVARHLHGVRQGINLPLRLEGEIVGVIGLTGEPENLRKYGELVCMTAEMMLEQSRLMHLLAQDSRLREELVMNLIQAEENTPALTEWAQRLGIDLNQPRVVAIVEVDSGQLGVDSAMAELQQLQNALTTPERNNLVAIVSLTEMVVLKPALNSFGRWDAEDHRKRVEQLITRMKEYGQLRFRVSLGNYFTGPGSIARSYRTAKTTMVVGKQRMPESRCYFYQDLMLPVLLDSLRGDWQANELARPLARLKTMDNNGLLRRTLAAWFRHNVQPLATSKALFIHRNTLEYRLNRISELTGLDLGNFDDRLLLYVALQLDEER

Chain of TetR (P04483 whole entry, looked up): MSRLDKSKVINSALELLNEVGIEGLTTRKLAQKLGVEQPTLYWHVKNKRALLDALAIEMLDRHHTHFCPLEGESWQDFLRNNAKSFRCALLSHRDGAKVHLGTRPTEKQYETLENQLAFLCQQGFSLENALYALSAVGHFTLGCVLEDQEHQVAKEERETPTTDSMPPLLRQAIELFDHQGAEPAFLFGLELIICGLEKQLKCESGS

Structure (SMILES) | EC50 (TetR) [µM] | EC50 (CdaR) [µM]
Cc1c2c(c(O)c3c(O)cccc13)C(=O)[C@]1(O)C(=O)C(C(N)=O)=C(O)[C@@H](N(C)C)[C@@H]1C2 [anhydrotetracycline] | 0.081 ± 0.001 | –
O=C(O)[C@@H](O)[C@@H](O)[C@H](O)[C@@H](O)C(=O)O [glucarate] | – | 490 ± 60

— PMC4551912, “Synthetic biosensors for precise gene control and real-time monitoring of metabolites” (Nucleic Acids Research, 2015)
